In ChEMBL document CHEMBL3822444, “Synthesis and cytotoxic evaluation of novel indenoisoquinoline-substituted triazole hybrids” (Bioorg Med Chem Lett, 2016):

Tests used:
[1] = test system: KB; assay: Cytotoxicity against human KB cells assessed as growth inhibition measured after 3 days by MTT assay; type: functional, cell-based; conditions: 72 h
[2] = test system: HepG2; assay: Cytotoxicity against human HepG2 cells assessed as growth inhibition measured after 3 days by MTT assay; type: functional, cell-based; conditions: HepG2, 72 h

Row | SMILES | IC50 [1] [µM] | IC50 [2] [µM]
1 | NCc1cn(CC(O)Cn2c3c(c4ccccc4c2=O)C(=O)c2ccccc2-3)nn1 (stereo unspecified) | 50 | 195
2 | Cc1cn([C@H]2C[C@H](n3cc(COC(=O)[C@H](CO)n4c5c(c6ccccc6c4=O)C(=O)c4ccccc4-5)nn3)[C@@H](CO)O2)c(=O)[nH]c1=O | 0.35 | 1.18
3 | [N-]=[N+]=NCC(O)Cn1c2c(c3ccccc3c1=O)C(=O)c1ccccc1-2 (stereo unspecified) | 42 | 45
4 | Cc1ccc(S(=O)(=O)Nc2cccc(-c3cn(CC(O)Cn4c5c(c6ccccc6c4=O)C(=O)c4ccccc4-5)nn3)c2)cc1 (stereo unspecified) | 89.9 | 69.8
5 | O=C(OCc1cn(CC(O)Cn2c3c(c4ccccc4c2=O)C(=O)c2ccccc2-3)nn1)c1ccc(Cl)cc1 (stereo unspecified) | 10.5 | 9.75
6 | O=C(NCc1cn(CC(O)Cn2c3c(c4ccccc4c2=O)C(=O)c2ccccc2-3)nn1)c1ccc(Br)cc1 (stereo unspecified) | 56.7 | 43.8
7 | Cc1ccc(NC(=O)c2ccc(Cn3cc(Cn4c5c(c6ccccc6c4=O)C(=O)c4ccccc4-5)nn3)cc2)cc1Nc1nccc(-c2cccnc2)n1 | 1.56 | 2.33
8 | Cc1cn([C@H]2C[C@H](n3cc(Cn4c5c(c6ccccc6c4=O)C(=O)c4ccccc4-5)nn3)[C@@H](CO)O2)c(=O)[nH]c1=O | 0.79 | 0.64
9 | CC(=O)NCc1cn(CC(O)Cn2c3c(c4ccccc4c2=O)C(=O)c2ccccc2-3)nn1 (stereo unspecified) | 14.1 | 9.04
10 | Nc1cccc(-c2cn(CC(O)Cn3c4c(c5ccccc5c3=O)C(=O)c3ccccc3-4)nn2)c1 (stereo unspecified) | 15.3 | 32
11 | COc1ccc(C(=O)OCc2cn(CC(O)Cn3c4c(c5ccccc5c3=O)C(=O)c3ccccc3-4)nn2)cc1 (stereo unspecified) | 11.2 | 11.9
12 | O=C1c2ccccc2-c2c1c1ccccc1c(=O)n2CC(O)Cn1cc(CN2CCOCC2)nn1 (stereo unspecified) | 1.56 | 10.2
13 | Cc1c2ccncc2c(C)c2c1[nH]c1ccccc12 [ELLIPTECINE] | 1.26 | 1.46
14 | Cc1cn([C@H]2C[C@H](n3cc(COC(=O)[C@H](CC(C)C)n4c5c(c6ccccc6c4=O)C(=O)c4ccccc4-5)nn3)[C@@H](CO)O2)c(=O)[nH]c1=O | 0.75 | 2.25
15 | O=C1c2ccccc2-c2c1c1ccccc1c(=O)n2CC(O)Cn1cc(CO)nn1 (stereo unspecified) | 2.86 | 0.74
16 | Cc1cn([C@H]2C[C@H](N=[N+]=[N-])[C@@H](CO)O2)c(=O)[nH]c1=O [ZIDOVUDINE] |  | > 479
17 | CC(=O)Nc1cccc(-c2cn(CC(Cn3c4c(c5ccccc5c3=O)C(=O)c3ccccc3-4)OC(C)=O)nn2)c1 (stereo unspecified) | > 234 | > 234
18 | Cc1cn([C@H]2C[C@H](n3cc(COC(=O)[C@H](Cc4ccccc4)n4c5c(c6ccccc6c4=O)C(=O)c4ccccc4-5)nn3)[C@@H](CO)O2)c(=O)[nH]c1=O | 0.49 | 0.48
19 | Cc1cn([C@@H]2C[C@@H](n3cc(COC(=O)[C@@H](Cc4c[nH]c5ccccc45)n4c5c(c6ccccc6c4=O)C(=O)c4ccccc4-5)nn3)[C@H](CO)O2)c(=O)[nH]c1=O (single isomer, unassigned) | 21.6 | 84.5
20 | Cc1ccc(S(=O)(=O)NCc2cn(CC(O)Cn3c4c(c5ccccc5c3=O)C(=O)c3ccccc3-4)nn2)cc1 (stereo unspecified) | 115 | 115
21 | O=C(OCc1cn(CC(O)Cn2c3c(c4ccccc4c2=O)C(=O)c2ccccc2-3)nn1)c1ccc(Br)cc1 (stereo unspecified) | 6.28 | 4.27
22 | O=C1c2ccccc2-c2c1c1ccccc1c(=O)n2CC(O)Cn1cc(CBr)nn1 (stereo unspecified) | 0.79 | 0.76
23 | CC(=O)OCc1cn(CC(Cn2c3c(c4ccccc4c2=O)C(=O)c2ccccc2-3)OC(C)=O)nn1 (stereo unspecified) | 18.6 | 19
24 | CC(C)C(=O)NCc1cn(CC(O)Cn2c3c(c4ccccc4c2=O)C(=O)c2ccccc2-3)nn1 (stereo unspecified) | 123 | 22.1
25 | Cc1cn([C@H]2C[C@H](n3cc(COC(=O)Cn4c5c(c6ccccc6c4=O)C(=O)c4ccccc4-5)nn3)[C@@H](CO)O2)c(=O)[nH]c1=O | 26.2 | 26.2
26 | O=C1c2ccccc2-c2c1c1ccccc1c(=O)n2Cc1cn(CC(O)Cn2c3c(c4ccccc4c2=O)C(=O)c2ccccc2-3)nn1 (stereo unspecified) | 2.89 | 2.29
